From ChEMBL document CHEMBL3885861, “Open TG-GATES”

Species on record: Rattus norvegicus
Experiment: Open TG-GATES - Regimen: Daily Repeat
Format: toxicity, organism-based, Sprague-Dawley
Parameters: regimen Daily Repeat, gender Male, age 6 weeks
Settings: in vivo, po, route gavage; for APTT / Bas / Eos / Fbg / Hb / Ht / Lym / MCH / MCHC / MCV / Mono / Neu / PT / Plat / RBC / Ret / WBC: tissue Blood; for KIDNEY_L / KIDNEY_R / KIDNEY_TOTAL: tissue Kidney; for LIVER: tissue Liver; for A/G / ALP / ALT / AST / BUN / CRE / Ca / Cl / DBIL / GLC / IP / K / LDH / Na / PL / RALB / TBIL / TC / TG / TP / gamma-GTP: tissue Plasma
[1] = 0 mg/kg, 72 h, dose level Control, time 3 day
[2] = 0 mg/kg, […], dose level Control, time 7 day
[3] = 0 mg/kg, […], dose level Control, time 14 day
[4] = 0 mg/kg, […], dose level Control, time 28 day
[5] = 10 mg/kg, 72 h, dose level Low, time 3 day
[6] = 10 mg/kg, […], dose level Low, time 7 day
[7] = 10 mg/kg, […], dose level Low, time 14 day
[8] = 10 mg/kg, […], dose level Low, time 28 day

O=C1CN(/N=C/c2ccc([N+](=O)[O-])o2)C(=O)N1 [NITROFURANTOIN]
TERMINAL_BW [1]: 244.1 g
APTT [1]: 19.2 s
Bas [1]: 0%
Eos [1]: 1%
Fbg [1]: 219 mg/dL
Hb [1]: 13.7 g/dL
Ht [1]: 39.1%
Lym [1]: 80.6%
MCH [1]: 22 pg
MCHC [1]: 35.1%
MCV [1]: 62.8 fL
Mono [1]: 3%
Neu [1]: 13.8%
PT [1]: 12.3 s
Plat [1]: 134.3 x10_4/uL
RBC [1]: 622.8 x10_4/ul
Ret [1]: 6.3%
WBC [1]: 116.2 x10_2/uL
KIDNEY_L [1]: 1 g
KIDNEY_R [1]: 1.1 g
KIDNEY_TOTAL [1]: 2.1 g
LIVER [1]: 12.1 g
A/G [1]: 1.5
ALP [1]: 885 IU/L
ALT [1]: 35.6 IU/L
AST [1]: 68.6 IU/L
BUN [1]: 16.2 mg/dL
CRE [1]: 0.4 mg/dL
Ca [1]: 10.8 mg/dL
Cl [1]: 101 meq/L
DBIL [1]: 0.1 mg/dL
GLC [1]: 233.2 mg/dL
IP [1]: 7.2 mg/dL
K [1]: 3.7 meq/L
LDH [1]: 200.8 IU/L
Na [1]: 140 meq/L
PL [1]: 166.6 mg/dL
RALB [1]: 3.4 g/dL
TBIL [1]: 0.2 mg/dL
TC [1]: 77.6 mg/dL
TG [1]: 139.8 mg/dL
TP [1]: 5.6 g/dL
gamma-GTP [1]: 1 IU/L
TERMINAL_BW [2]: 274 g
TERMINAL_BW [3]: 331.5 g
TERMINAL_BW [4]: 422.1 g
APTT [2]: 19.9 s
Bas [2]: 0%
Eos [2]: 0.8%
Fbg [2]: 227.8 mg/dL
Hb [2]: 14.1 g/dL
Ht [2]: 40.2%
Lym [2]: 80.6%
MCH [2]: 21.5 pg
MCHC [2]: 35.2%
MCV [2]: 61.2 fL
Mono [2]: 2.6%
Neu [2]: 14.6%
PT [2]: 12.5 s
Plat [2]: 135 x10_4/uL
RBC [2]: 657.2 x10_4/ul
Ret [2]: 5.4%
WBC [2]: 123.7 x10_2/uL
APTT [3]: 20.1 s
Bas [3]: 0%
Eos [3]: 0.6%
Fbg [3]: 227.4 mg/dL
Hb [3]: 14.6 g/dL
Ht [3]: 41.5%
Lym [3]: 77.4%
MCH [3]: 20.3 pg
MCHC [3]: 35.1%
MCV [3]: 57.7 fL
Mono [3]: 1.8%
Neu [3]: 18.8%
PT [3]: 12.3 s
Plat [3]: 117.4 x10_4/uL
RBC [3]: 718.6 x10_4/ul
Ret [3]: 4.4%
WBC [3]: 127.2 x10_2/uL
APTT [4]: 21.4 s
Bas [4]: 0%
Eos [4]: 1%
Fbg [4]: 227 mg/dL
Hb [4]: 15 g/dL
Ht [4]: 42.7%
Lym [4]: 84%
MCH [4]: 19.8 pg
MCHC [4]: 35%
MCV [4]: 56.4 fL
Mono [4]: 1.6%
Neu [4]: 12.4%
PT [4]: 12.4 s
Plat [4]: 107.4 x10_4/uL
RBC [4]: 757.4 x10_4/ul
Ret [4]: 2.4%
WBC [4]: 107.5 x10_2/uL
KIDNEY_L [2]: 1.2 g
KIDNEY_R [2]: 1.2 g
KIDNEY_TOTAL [2]: 2.4 g
KIDNEY_L [3]: 1.3 g
KIDNEY_R [3]: 1.3 g
KIDNEY_TOTAL [3]: 2.6 g
KIDNEY_L [4]: 1.5 g
KIDNEY_R [4]: 1.5 g
KIDNEY_TOTAL [4]: 2.9 g
LIVER [2]: 13 g
LIVER [3]: 14.5 g
LIVER [4]: 17.7 g
A/G [2]: 1.5
ALP [2]: 943.4 IU/L
ALT [2]: 32.8 IU/L
AST [2]: 63.2 IU/L
BUN [2]: 16.4 mg/dL
CRE [2]: 0.4 mg/dL
Ca [2]: 10.8 mg/dL
Cl [2]: 101 meq/L
DBIL [2]: 0.1 mg/dL
GLC [2]: 192.8 mg/dL
IP [2]: 6.9 mg/dL
K [2]: 4.4 meq/L
LDH [2]: 238.6 IU/L
Na [2]: 139.8 meq/L
PL [2]: 166.8 mg/dL
RALB [2]: 3.5 g/dL
TBIL [2]: 0.2 mg/dL
TC [2]: 79.4 mg/dL
TG [2]: 141 mg/dL
TP [2]: 5.8 g/dL
gamma-GTP [2]: 0.6 IU/L
A/G [3]: 1.4
ALP [3]: 818 IU/L
ALT [3]: 34.4 IU/L
AST [3]: 60.6 IU/L
BUN [3]: 16.6 mg/dL
CRE [3]: 0.4 mg/dL
Ca [3]: 10.4 mg/dL
Cl [3]: 101.6 meq/L
DBIL [3]: 0.1 mg/dL
GLC [3]: 218.2 mg/dL
IP [3]: 6.7 mg/dL
K [3]: 3.7 meq/L
LDH [3]: 189.6 IU/L
Na [3]: 140 meq/L
PL [3]: 153.2 mg/dL
RALB [3]: 3.4 g/dL
TBIL [3]: 0.2 mg/dL
TC [3]: 66.4 mg/dL
TG [3]: 148.8 mg/dL
TP [3]: 5.9 g/dL
gamma-GTP [3]: 1 IU/L
A/G [4]: 1.3
ALP [4]: 551.8 IU/L
ALT [4]: 32.8 IU/L
AST [4]: 54.8 IU/L
BUN [4]: 16.6 mg/dL
CRE [4]: 0.5 mg/dL
Ca [4]: 10.4 mg/dL
Cl [4]: 102.4 meq/L
DBIL [4]: 0.1 mg/dL
GLC [4]: 218 mg/dL
IP [4]: 6.5 mg/dL
K [4]: 3.6 meq/L
LDH [4]: 125 IU/L
Na [4]: 140 meq/L
PL [4]: 162.4 mg/dL
RALB [4]: 3.4 g/dL
TBIL [4]: 0.2 mg/dL
TC [4]: 78.4 mg/dL
TG [4]: 139.2 mg/dL
TP [4]: 6.1 g/dL
gamma-GTP [4]: 1.2 IU/L
TERMINAL_BW [5]: 245.3 g
APTT [5]: 18 s
Bas [5]: 0%
Eos [5]: 1%
Fbg [5]: 213.8 mg/dL
Hb [5]: 13.2 g/dL
Ht [5]: 37.5%
Lym [5]: 79.8%
MCH [5]: 22.4 pg
MCHC [5]: 35.3%
MCV [5]: 63.3 fL
Mono [5]: 2.6%
Neu [5]: 15.2%
PT [5]: 12.5 s
Plat [5]: 122.9 x10_4/uL
RBC [5]: 592.2 x10_4/ul
Ret [5]: 6.6%
WBC [5]: 108.7 x10_2/uL
KIDNEY_L [5]: 1.1 g
KIDNEY_R [5]: 1 g
KIDNEY_TOTAL [5]: 2.1 g
LIVER [5]: 11.5 g
A/G [5]: 1.7
ALP [5]: 964.4 IU/L
ALT [5]: 33.2 IU/L
AST [5]: 68 IU/L
BUN [5]: 13.8 mg/dL
CRE [5]: 0.4 mg/dL
Ca [5]: 10.6 mg/dL
Cl [5]: 102.4 meq/L
DBIL [5]: 0.096 mg/dL
GLC [5]: 212.6 mg/dL
IP [5]: 7.2 mg/dL
K [5]: 3.9 meq/L
LDH [5]: 200.2 IU/L
Na [5]: 140 meq/L
PL [5]: 134.4 mg/dL
RALB [5]: 3.4 g/dL
TBIL [5]: 0.1 mg/dL
TC [5]: 65.6 mg/dL
TG [5]: 99.8 mg/dL
TP [5]: 5.5 g/dL
gamma-GTP [5]: 1 IU/L
TERMINAL_BW [6]: 276.7 g
TERMINAL_BW [7]: 338.3 g
TERMINAL_BW [8]: 422 g
APTT [6]: 20.1 s
Bas [6]: 0%
Eos [6]: 1%
Fbg [6]: 228.8 mg/dL
Hb [6]: 13.9 g/dL
Ht [6]: 39.5%
Lym [6]: 79.2%
MCH [6]: 21.7 pg
MCHC [6]: 35.2%
MCV [6]: 61.9 fL
Mono [6]: 3%
Neu [6]: 16.4%
PT [6]: 12.6 s
Plat [6]: 124.7 x10_4/uL
RBC [6]: 639.4 x10_4/ul
Ret [6]: 6%
WBC [6]: 123.1 x10_2/uL
APTT [7]: 19.8 s
Bas [7]: 0%
Eos [7]: 1%
Fbg [7]: 223 mg/dL
Hb [7]: 14.3 g/dL
Ht [7]: 41.2%
Lym [7]: 80.6%
MCH [7]: 21 pg
MCHC [7]: 34.8%
MCV [7]: 60.3 fL
Mono [7]: 2.2%
Neu [7]: 15%
PT [7]: 12.2 s
Plat [7]: 114.6 x10_4/uL
RBC [7]: 683 x10_4/ul
Ret [7]: 4.3%
WBC [7]: 119.2 x10_2/uL
APTT [8]: 19.9 s
Bas [8]: 0%
Eos [8]: 1%
Fbg [8]: 220.4 mg/dL
Hb [8]: 15 g/dL
Ht [8]: 43.1%
Lym [8]: 83.8%
MCH [8]: 19.8 pg
MCHC [8]: 34.8%
MCV [8]: 56.8 fL
Mono [8]: 2.2%
Neu [8]: 12.2%
PT [8]: 12.7 s
Plat [8]: 99.8 x10_4/uL
RBC [8]: 759 x10_4/ul
Ret [8]: 2.6%
WBC [8]: 140.7 x10_2/uL
KIDNEY_L [6]: 1.1 g
KIDNEY_R [6]: 1.1 g
KIDNEY_TOTAL [6]: 2.3 g
KIDNEY_L [7]: 1.3 g
KIDNEY_R [7]: 1.3 g
KIDNEY_TOTAL [7]: 2.5 g
KIDNEY_L [8]: 1.5 g
KIDNEY_R [8]: 1.5 g
KIDNEY_TOTAL [8]: 2.9 g
LIVER [6]: 13.3 g
LIVER [7]: 15.1 g
LIVER [8]: 17.2 g
A/G [6]: 1.6
ALP [6]: 916.8 IU/L
ALT [6]: 33.4 IU/L
AST [6]: 62.4 IU/L
BUN [6]: 15.8 mg/dL
CRE [6]: 0.4 mg/dL
Ca [6]: 11 mg/dL
Cl [6]: 100.6 meq/L
DBIL [6]: 0.1 mg/dL
GLC [6]: 205 mg/dL
IP [6]: 7.6 mg/dL
K [6]: 4.3 meq/L
LDH [6]: 201.2 IU/L
Na [6]: 140 meq/L
PL [6]: 156.8 mg/dL
RALB [6]: 3.5 g/dL
TBIL [6]: 0.2 mg/dL
TC [6]: 74.4 mg/dL
TG [6]: 142.4 mg/dL
TP [6]: 5.7 g/dL
gamma-GTP [6]: 1 IU/L
A/G [7]: 1.5
ALP [7]: 781 IU/L
ALT [7]: 32.6 IU/L
AST [7]: 60.4 IU/L
BUN [7]: 17.6 mg/dL
CRE [7]: 0.5 mg/dL
Ca [7]: 10.7 mg/dL
Cl [7]: 102.6 meq/L
DBIL [7]: 0.1 mg/dL
GLC [7]: 208 mg/dL
IP [7]: 6.5 mg/dL
K [7]: 3.7 meq/L
LDH [7]: 209.8 IU/L
Na [7]: 140.4 meq/L
PL [7]: 160.6 mg/dL
RALB [7]: 3.6 g/dL
TBIL [7]: 0.2 mg/dL
TC [7]: 75 mg/dL
TG [7]: 149.6 mg/dL
TP [7]: 6.1 g/dL
gamma-GTP [7]: 1 IU/L
A/G [8]: 1.3
ALP [8]: 736.4 IU/L
ALT [8]: 32.6 IU/L
AST [8]: 59.2 IU/L
BUN [8]: 16.6 mg/dL
CRE [8]: 0.5 mg/dL
Ca [8]: 10.4 mg/dL
Cl [8]: 102.4 meq/L
DBIL [8]: 0.098 mg/dL
GLC [8]: 224 mg/dL
IP [8]: 6.3 mg/dL
K [8]: 3.5 meq/L
LDH [8]: 137 IU/L
Na [8]: 139.6 meq/L
PL [8]: 140.8 mg/dL
RALB [8]: 3.4 g/dL
TBIL [8]: 0.2 mg/dL
TC [8]: 66.2 mg/dL
TG [8]: 104.6 mg/dL
TP [8]: 5.9 g/dL
gamma-GTP [8]: 1 IU/L
